Measured values published in patent publication US9669003B2, “Use of flavone and flavanone derivatives in preparation of sedative and hypnotic drugs” (priority 2012, dated 2017).
Marks after values point to notes of the source that are not given here.

test system: Kunming mice; test: Influence on hypnosis effect with pentobarbital sodium doses below the threshold (25 mg/kg i.p.); format: in vivo; conditions: test drug 25 mg/kg intragastric single dose, pentobarbital sodium 25 mg/kg i.p. 60 min later, sleep observed in 30 min, n = 10
How it was run: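 Percentage of mice sleeping within 30 min after subthreshold pentobarbital sodium (25 mg/kg i.p.), defined by loss of righting reflex over 1 min, analysed by χ2. Compound in 0.5% CMC-Na given intragastrically at 25/50/100 mg/kg 60 min before; groups of 10 Kunming mice, both sexes.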

SMILES	Number of sleeping animals	rate of sleeping (%)
CC=Cc1cc(I)cc2c1OC(c1cccc(C(=O)O)c1)CC2=O (stereo not drawn) [Example 60]	5	50** %
COc1ccc(C2CC(=O)c3c(cc(OC)c(OC)c3OC)O2)cc1 (stereo not drawn) [Example 65, 5,6,7,4′-tetra methoxyl-flavanone]	4	40* %
COc1ccc(C2CC(=O)c3c(OC)c(OC)c(OC)c(OC)c3O2)cc1 (stereo not drawn) [Example 47, 5,6,7,8,4′-penta methoxyl-flavanone]	4	40* %

same assay, conditions: test drug 50 mg/kg intragastric single dose, pentobarbital sodium 25 mg/kg i.p. 60 min later, sleep observed in 30 min, n = 10

SMILES	Number of sleeping animals	rate of sleeping (%)
CC=Cc1cc(I)cc2c1OC(c1cccc(C(=O)O)c1)CC2=O (stereo not drawn) [Example 60]	6	60** %
COc1ccc(C2CC(=O)c3c(cc(OC)c(OC)c3OC)O2)cc1 (stereo not drawn) [Example 65, 5,6,7,4′-tetra methoxyl-flavanone]	6	60** %
COc1ccc(C2CC(=O)c3c(OC)c(OC)c(OC)c(OC)c3O2)cc1 (stereo not drawn) [Example 47, 5,6,7,8,4′-penta methoxyl-flavanone]	7	70** %

same assay, conditions: test drug 100 mg/kg intragastric single dose, pentobarbital sodium 25 mg/kg i.p. 60 min later, sleep observed in 30 min, n = 10

SMILES	Number of sleeping animals	rate of sleeping (%)
CC=Cc1cc(I)cc2c1OC(c1cccc(C(=O)O)c1)CC2=O (stereo not drawn) [Example 60]	9	90*** %
COc1ccc(C2CC(=O)c3c(cc(OC)c(OC)c3OC)O2)cc1 (stereo not drawn) [Example 65, 5,6,7,4′-tetra methoxyl-flavanone]	7	70** %
COc1ccc(C2CC(=O)c3c(OC)c(OC)c(OC)c(OC)c3O2)cc1 (stereo not drawn) [Example 47, 5,6,7,8,4′-penta methoxyl-flavanone]	8	80*** %

test system: Kunming mice; test: Influence on autonomic activity of normal mice (ZIL-2 mice autonomic activity meter, counts within 10 min); format: in vivo; conditions: intragastric, 25 mg/kg, 1 h after administration, x ± s, n = 10
How it was run: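 Activity counts during a 10-min window were taken at 1, 2 and 24 h after dosing in groups of 10 mixed-sex Kunming mice. Compounds were given in 0.5% CMC-Na at 25, 50 or 100 mg/kg. Statistics used Levene's homogeneity test, ANOVA and Dunnett's multiple comparisons.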

SMILES	Times of activities in 1 h after drug administration/10 min
CC=Cc1cc(I)cc2c1OC(c1cccc(C(=O)O)c1)CC2=O (stereo not drawn) [Example 60]	243.8 ± 73.8 /10 min
COc1ccc(C2CC(=O)c3c(cc(OC)c(OC)c3OC)O2)cc1 (stereo not drawn) [Example 65, 5,6,7,4′-tetra methoxyl-flavanone]	280.5 ± 47.4 /10 min
COc1ccc(C2CC(=O)c3c(OC)c(OC)c(OC)c(OC)c3O2)cc1 (stereo not drawn) [Example 47, 5,6,7,8,4′-penta methoxyl-flavanone]	328.6 ± 49.7 /10 min

same assay, conditions: intragastric, 25 mg/kg, 2 h after administration, x ± s, n = 10

SMILES	Times of activities in 2 h after drug administration/10 min
CC=Cc1cc(I)cc2c1OC(c1cccc(C(=O)O)c1)CC2=O (stereo not drawn) [Example 60]	238.9 ± 78.3 /10 min
COc1ccc(C2CC(=O)c3c(cc(OC)c(OC)c3OC)O2)cc1 (stereo not drawn) [Example 65, 5,6,7,4′-tetra methoxyl-flavanone]	279.4 ± 43.5 /10 min
COc1ccc(C2CC(=O)c3c(OC)c(OC)c(OC)c(OC)c3O2)cc1 (stereo not drawn) [Example 47, 5,6,7,8,4′-penta methoxyl-flavanone]	312.7 ± 56.1 /10 min

same assay, conditions: intragastric, 25 mg/kg, 24 h after administration, x ± s, n = 10

SMILES	Times of activities in 24 h after drug administration/10 min
CC=Cc1cc(I)cc2c1OC(c1cccc(C(=O)O)c1)CC2=O (stereo not drawn) [Example 60]	340.4 ± 76.8 /10 min
COc1ccc(C2CC(=O)c3c(cc(OC)c(OC)c3OC)O2)cc1 (stereo not drawn) [Example 65, 5,6,7,4′-tetra methoxyl-flavanone]	291.2 ± 83.6 /10 min
COc1ccc(C2CC(=O)c3c(OC)c(OC)c(OC)c(OC)c3O2)cc1 (stereo not drawn) [Example 47, 5,6,7,8,4′-penta methoxyl-flavanone]	315.1 ± 85.4 /10 min

same assay, conditions: intragastric, 50 mg/kg, 1 h after administration, x ± s, n = 10

SMILES	Times of activities in 1 h after drug administration/10 min
CC=Cc1cc(I)cc2c1OC(c1cccc(C(=O)O)c1)CC2=O (stereo not drawn) [Example 60]	143.3 ± 64.7 /10 min
COc1ccc(C2CC(=O)c3c(cc(OC)c(OC)c3OC)O2)cc1 (stereo not drawn) [Example 65, 5,6,7,4′-tetra methoxyl-flavanone]	174.3 ± 49.2 /10 min
COc1ccc(C2CC(=O)c3c(OC)c(OC)c(OC)c(OC)c3O2)cc1 (stereo not drawn) [Example 47, 5,6,7,8,4′-penta methoxyl-flavanone]	280.7 ± 61.3 /10 min

same assay, conditions: intragastric, 50 mg/kg, 2 h after administration, x ± s, n = 10

SMILES	Times of activities in 2 h after drug administration/10 min
CC=Cc1cc(I)cc2c1OC(c1cccc(C(=O)O)c1)CC2=O (stereo not drawn) [Example 60]	131.8 ± 62.3 /10 min
COc1ccc(C2CC(=O)c3c(cc(OC)c(OC)c3OC)O2)cc1 (stereo not drawn) [Example 65, 5,6,7,4′-tetra methoxyl-flavanone]	185.5 ± 56.6 /10 min
COc1ccc(C2CC(=O)c3c(OC)c(OC)c(OC)c(OC)c3O2)cc1 (stereo not drawn) [Example 47, 5,6,7,8,4′-penta methoxyl-flavanone]	278.6 ± 47.5 /10 min

same assay, conditions: intragastric, 50 mg/kg, 24 h after administration, x ± s, n = 10

SMILES	Times of activities in 24 h after drug administration/10 min
CC=Cc1cc(I)cc2c1OC(c1cccc(C(=O)O)c1)CC2=O (stereo not drawn) [Example 60]	327.6 ± 75.3 /10 min
COc1ccc(C2CC(=O)c3c(cc(OC)c(OC)c3OC)O2)cc1 (stereo not drawn) [Example 65, 5,6,7,4′-tetra methoxyl-flavanone]	289.0 ± 89.4 /10 min
COc1ccc(C2CC(=O)c3c(OC)c(OC)c(OC)c(OC)c3O2)cc1 (stereo not drawn) [Example 47, 5,6,7,8,4′-penta methoxyl-flavanone]	310.5 ± 75.3 /10 min

same assay, conditions: intragastric, 100 mg/kg, 1 h after administration, x ± s, n = 10

SMILES	Times of activities in 1 h after drug administration/10 min
CC=Cc1cc(I)cc2c1OC(c1cccc(C(=O)O)c1)CC2=O (stereo not drawn) [Example 60]	116.9 ± 33.8 /10 min
COc1ccc(C2CC(=O)c3c(cc(OC)c(OC)c3OC)O2)cc1 (stereo not drawn) [Example 65, 5,6,7,4′-tetra methoxyl-flavanone]	127.5 ± 36.5 /10 min
COc1ccc(C2CC(=O)c3c(OC)c(OC)c(OC)c(OC)c3O2)cc1 (stereo not drawn) [Example 47, 5,6,7,8,4′-penta methoxyl-flavanone]	237.2 ± 35.6 /10 min

same assay, conditions: intragastric, 100 mg/kg, 2 h after administration, x ± s, n = 10

SMILES	Times of activities in 2 h after drug administration/10 min
CC=Cc1cc(I)cc2c1OC(c1cccc(C(=O)O)c1)CC2=O (stereo not drawn) [Example 60]	109.9 ± 39.2 /10 min
COc1ccc(C2CC(=O)c3c(cc(OC)c(OC)c3OC)O2)cc1 (stereo not drawn) [Example 65, 5,6,7,4′-tetra methoxyl-flavanone]	132.6 ± 44.6 /10 min
COc1ccc(C2CC(=O)c3c(OC)c(OC)c(OC)c(OC)c3O2)cc1 (stereo not drawn) [Example 47, 5,6,7,8,4′-penta methoxyl-flavanone]	250.3 ± 46.2 /10 min

same assay, conditions: intragastric, 100 mg/kg, 24 h after administration, x ± s, n = 10

SMILES	Times of activities in 24 h after drug administration/10 min
CC=Cc1cc(I)cc2c1OC(c1cccc(C(=O)O)c1)CC2=O (stereo not drawn) [Example 60]	293.4 ± 84.9 /10 min
COc1ccc(C2CC(=O)c3c(cc(OC)c(OC)c3OC)O2)cc1 (stereo not drawn) [Example 65, 5,6,7,4′-tetra methoxyl-flavanone]	280.7 ± 92.3 /10 min
COc1ccc(C2CC(=O)c3c(OC)c(OC)c(OC)c(OC)c3O2)cc1 (stereo not drawn) [Example 47, 5,6,7,8,4′-penta methoxyl-flavanone]	307.1 ± 82.3 /10 min

test system: Kunming mice; test: Influence on hypnosis effect with pentobarbital sodium doses at the threshold (50 mg/kg i.p.); format: in vivo; conditions: 25 mg/kg intragastric single dose, pentobarbital sodium 50 mg/kg i.p. 60 min later, x ± s, n = 10
How it was run: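 Pentobarbital sodium (0.3%, 50 mg/kg i.p.) injected 60 min after a single intragastric dose (25, 50, 100 mg/kg, 0.5% CMC-Na vehicle) in Kunming mice, 10 per group, sexes balanced. Onset and length of sleep (righting reflex lost over 1 min) analysed by ANOVA; sleeping incidence by χ2 test.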

SMILES	duration of sleep [min]	time to sleep [min]
CC=Cc1cc(I)cc2c1OC(c1cccc(C(=O)O)c1)CC2=O (stereo not drawn) [Example 60]	46.64 ± 22.53	4.13 ± 1.59
COc1ccc(C2CC(=O)c3c(cc(OC)c(OC)c3OC)O2)cc1 (stereo not drawn) [Example 65, 5,6,7,4′-tetra methoxyl-flavanone]	31.48 ± 22.67	5.65 ± 1.83
COc1ccc(C2CC(=O)c3c(OC)c(OC)c(OC)c(OC)c3O2)cc1 (stereo not drawn) [Example 47, 5,6,7,8,4′-penta methoxyl-flavanone]	39.86 ± 16.75	4.45 ± 1.43

same assay, conditions: 50 mg/kg intragastric single dose, pentobarbital sodium 50 mg/kg i.p. 60 min later, x ± s, n = 10

SMILES	duration of sleep [min]	time to sleep [min]
CC=Cc1cc(I)cc2c1OC(c1cccc(C(=O)O)c1)CC2=O (stereo not drawn) [Example 60]	58.37 ± 18.85	3.62 ± 1.74
COc1ccc(C2CC(=O)c3c(cc(OC)c(OC)c3OC)O2)cc1 (stereo not drawn) [Example 65, 5,6,7,4′-tetra methoxyl-flavanone]	39.63 ± 20.19	3.93 ± 1.39
COc1ccc(C2CC(=O)c3c(OC)c(OC)c(OC)c(OC)c3O2)cc1 (stereo not drawn) [Example 47, 5,6,7,8,4′-penta methoxyl-flavanone]	43.26 ± 20.65	3.72 ± 1.65

same assay, conditions: 100 mg/kg intragastric single dose, pentobarbital sodium 50 mg/kg i.p. 60 min later, x ± s, n = 10

SMILES	duration of sleep [min]	time to sleep [min]
CC=Cc1cc(I)cc2c1OC(c1cccc(C(=O)O)c1)CC2=O (stereo not drawn) [Example 60]	73.03 ± 19.21	2.32 ± 1.17
COc1ccc(C2CC(=O)c3c(cc(OC)c(OC)c3OC)O2)cc1 (stereo not drawn) [Example 65, 5,6,7,4′-tetra methoxyl-flavanone]	57.62 ± 24.57	3.92 ± 1.40
COc1ccc(C2CC(=O)c3c(OC)c(OC)c(OC)c(OC)c3O2)cc1 (stereo not drawn) [Example 47, 5,6,7,8,4′-penta methoxyl-flavanone]	59.78 ± 19.65	3.18 ± 1.54
